Laboratory results taken from patent US12415799B2, “Indazole-fused cyclic compound” (Zhejiang Yangli Pharmaceutical Technology Co., Ltd., priority 2020, dated 2025).
Each block holds one molecule with its values, some of them ahead of it.

Legend:
[1] = In vivo pharmacokinetic study in mice; set-up: species or system female Balb/c mice
Description: (§1) Experimental purposes: To test the drug concentration in plasma of mice at different times after intravenous and intragastric administration of the test compound by LC/MS/MS using female Balb/c mice as the experimental animals. To study the pharmacokinetics of the test compound in mice in vivo and evaluate their pharmacokinetic characteristics.
Experimental animals: 4 healthy female Balb/c mice were divided into 2 groups according to the principle of similar body weight, with 2 mice in each group in IV group and 2 mice in each group in PO group. Animals were purchased from Shanghai Lingchang Biotechnology Co., Ltd.
Appropriate number of samples were weighed and prepared into 1 mg/mL solution respectively, and the mixture was stirred and ultrasonicated to reach a clear state, and the solvent was 15% HP-β-CD.
Administration: After fasting overnight, IV group was administered intravenously, and the dosage of the test compound was 5 mg/kg; PO group was administered intragastrically, and the dosage of the test compound was 10 mg/kg.
(§2) After the female Balb/c mice in the intravenous injection group were given the test compound respectively, 30 μL of blood was collected from the saphenous vein at 0.0833, 0.25, 0.5, 1, 2, 4, 8, and 24 hours, and placed in a commercialized anticoagulant tube added with EDTA-K2 in advance. After intragastric administration of the test compound, 30 μL of blood was collected from the saphenous vein at 0.25, 0.5, 1, 2, 4, 8, 12 and 24 hours, respectively, and placed in a commercialized anticoagulant tube added with EDTA-K2 in advance. After centrifugation (3,200 g, 4° C., 10 minutes), the plasma was collected, transferred to a pre-cooled centrifuge tube, quickly frozen in dry ice, and stored in a refrigerator at −60° C. or lower, until LC-MS/MS analysis. Animals were allowed to eat 4 hours after administration. LC/MS/MS method was used to determine the content of the test compound in the plasma of mice after intravenous and intragastric administration. The linear range of the method was 2.00 to 2000 nM.

rat uterus = experiment: Uterine wet weight inhibition experiment in rat cubs; type: in vivo; details: 18-day-old female rat pups, oral, three consecutive days; compounds 25 mg/kg, Ethinylestradiol 0.1 mg/kg
Protocol: The purpose of this experiment was to evaluate the effect of the compound of the present disclosure on uterine growth inhibition in 18 to 21-day-old female rat pups (provided by Beijing Vital River Laboratory Animal Technology Co., Ltd.). In this experiment, 18-day-old female rat pups were orally administered the compound of the present disclosure at a dose of 25 mg/kg for three consecutive days, and the control group was orally administered 0.1 mg/kg of Ethinylestradiol for three consecutive days, and the blank group was not given any drug except the corresponding solvent. Three days after the administration, the rats were sacrificed, and the weight of the rat uterus was weighed to observe the effect of the test drug on the growth inhibition of the rat uterus. Inhibition rate=100×[(VehicleEE−Cpd)/(VehicleEE−Vehicle)], VehicleEE was the wet weight of the rat uterus in the control group (administered 0.1 mg/kg of Ethinylestradiol orally); Cpd was the wet weight of the rat uterus in administration group; Vehicle was the wet weight of the rat uterus in the blank group.

[2] = In vivo pharmacokinetic study in rats; set-up: species or system male SD rats
Description: as §1, with “rats” for “mice”, “male fasted SD rats” for “female Balb/c mice”
Experimental animals: 4 healthy male SD rats were divided into 2 groups according to the principle of similar body weight, with 2 mice in each group in IV group and 2 mice in each group in PO group. Animals were purchased from Beijing Vital River Laboratory Animal Co., Ltd.
IV group: Appropriate number of samples were weighed and prepared into 0.5 mg/mL solution respectively, and the mixture was stirred and ultrasonicated to reach a clear state, and the solvent was 15% HP-β-CD.
PO group: Appropriate amount of the solution prepared in IV group was diluted to 0.4 mg/mL with 15% HP-β-CD.
Administration: After fasting overnight, IV group was administered intravenously, and the dosage of the test compound was 1 mg/kg; PO group was administered intragastrically, and the dosage of the test compound was 2 mg/kg.
as §2, with “male rats” for “female Balb/c mice”, “200” for “30”, “jugular” for “saphenous”, “rats” for “mice”

[3] = female, Balb/c, mouse, plasma, iv, i.v. 5 mg/kg
[4] = female, Balb/c, mouse, plasma, po, p.o. 10 mg/kg
[5] = male, SD, rat, plasma, iv, i.v. 1 mg/kg
[6] = male, SD, rat, plasma, po, p.o. 2 mg/kg

AUC(0-t) [1, 3]: 8.47 µM·h | clearance [1, 3]: 18.3 mL/min/kg | half-life [1, 3]: 6.85 h | Vd ([1]; female, Balb/c, mouse, plasma, iv, i.v. 5 mg/kg, read-out: Vdss): 10.6 L/kg | bioavailability ([1]; female, Balb/c, mouse, plasma, oral, p.o. 10 mg/kg vs i.v. 5 mg/kg): 71.8% | AUC(0-t) [1, 4]: 11.7 µM·h | Cmax [1, 4]: 937 nM | half-life [1, 4]: 7.67 h | Inhibition rate (rat uterus): 95.8% | Uterine wet weight (rat uterus): 52.34 mg | AUC(0-t) [2, 5]: 0.493 µM·h | clearance [2, 5]: 54.6 mL/min/kg | half-life [2, 5]: 3.62 h | Vd ([2]; male, SD, rat, plasma, iv, i.v. 1 mg/kg, read-out: Vdss): 15.9 L/kg | bioavailability ([2]; male, SD, rat, plasma, oral, p.o. 2 mg/kg vs i.v. 1 mg/kg): 24.3% | AUC(0-t) [2, 6]: 0.24 µM·h | Cmax [2, 6]: 39.3 nM | half-life [2, 6]: 5.8 h
SMILES: FCCCN1CC(Nc2ccc(C3=C(CC(F)(F)F)CCCc4c3ccc3[nH]nc(F)c43)nc2)C1 [Compound 2]
Ratio of uterine wet weight/rat body weight (rat uterus): 0.84 mg/g

AUC0-last ([1]; i.v. 5 mg/kg): 5.27 µM·h | Cl ([1]; i.v. 5 mg/kg): 30.2 mL/min/kg | T1/2 ([1]; i.v. 5 mg/kg): 5.16 h | Vdss ([1]; i.v. 5 mg/kg): 11.1 L/kg | AUC0-last ([1]; p.o. 10 mg/kg): 5.856 µM·h | Cmax ([1]; p.o. 10 mg/kg): 779 nM | T1/2 ([1]; p.o. 10 mg/kg): 4.72 h | F % ([1]; p.o. 10 mg/kg vs i.v. 5 mg/kg): 55.4% | Inhibition rate (rat uterus): 99.0% | Uterine wet weight (rat uterus): 49.725 mg | AUC0-last ([2]; i.v. 1 mg/kg): 0.518 µM·h | Cl ([2]; i.v. 1 mg/kg): 53.1 mL/min/kg | T1/2 ([2]; i.v. 1 mg/kg): 3.19 h | Vdss ([2]; i.v. 1 mg/kg): 14.5 L/kg | AUC0-last ([2]; p.o. 2 mg/kg): 0.601 µM·h | Cmax ([2]; p.o. 2 mg/kg): 66.9 nM | T1/2 ([2]; p.o. 2 mg/kg): 8.96 h | F % ([2]; p.o. 2 mg/kg vs i.v. 1 mg/kg): 58.1%
SMILES: FCCCN1CC[C@H](Nc2cnc(C3=C(CC(F)(F)F)CCCc4c3ccc3[nH]nc(F)c43)cn2)C1 [Compound 11A]
Ratio of uterine wet weight/rat body weight (rat uterus): 1.05 mg/g
